Assay results taken from patent US4450149A, “Radiohalogenation method” (Research Corporation, priority 1981, dated 1984).
Where two headings read alike, the source gives them in different places.

How the values were obtained:
[1] = reported in J. Nucl. Med., 22:0000, 1981; average of 5 rats (standard deviation); cited from earlier work
[2] = Tissue distribution study of radioiodinated fatty acid, 5 min post intravenous injection; format: in vivo, female Sp-raque-Dawley rats; settings: 5 min post injection, approximately 25 μCi, Prepared Via Present Method, average of 5 rats (standard deviation)
Method: Tissue Distribution Study The radioiodinated 19-^125 I-iodononadecanoicacid was evaluated in female Sp-raque-Dawley rats weighing 250-350 g. The rats were given food and water ad libidum. For the tissue distribution study, approximately 25 μCi of the fatty acid in a physiological formulation (EtOH/Tween 80/0.9% saline: 2.5 ml/0.65 ml/22 ml) was administered intraveneously to ether anesthetized rats. Five animals were sacrificed at 5 min post injection. Representative 50-100 mg samples of heart, liver, lung, blood, and muscle were removed and cleaned of fat and connective tissue. Samples were counted in an auto-gamma scintillation counter and values corrected for radioactive decay, counting efficiency and background. The resulting tissue concentration values were normalized to a per kilogram body weight and are reported in % kg dose/g. as shown in Table 8.

O=C(O)CCCCCCCCCCCCCCCCCC[125I] [19-^125 I--iodononadecanoic acid]
tissue concentration, Blood [1]: 0.15 ± 0.01 % kg dose/g | tissue concentration, Heart [1]: 0.88 ± 0.23 % kg dose/g | tissue concentration, Liver [1]: 0.53 ± 0.02 % kg dose/g | tissue concentration, Lung [1]: 0.28 ± 0.04 % kg dose/g | tissue concentration, Muscle [1]: 0.19 ± 0.00 % kg dose/g | tissue concentration, Blood [2]: 0.13 ± 0.00 % kg dose/g | tissue concentration, Heart [2]: 0.71 ± 0.01 % kg dose/g | tissue concentration, Liver [2]: 0.47 ± 0.03 % kg dose/g | tissue concentration, Lung [2]: 0.24 ± 0.02 % kg dose/g | tissue concentration, Muscle [2]: 0.14 ± 0.00 % kg dose/g
